Values belong to the compound of their own block, whether it stands above or below them.
Experiments:
[1] = tested on: PGE2; assay: PGE2 immunoassay of conditioned medium, BxPC-3 and MIA PaCa-2; format: cell-based, human; conditions: 24 h
Method: The conditioned medium was collected and analyzed for PGE2 concentration, according to the manufacture's protocol, using a PGE2 high sensitivity immunoassay kit purchased from R & D Systems, Minneapolis, Minn. The optical density was measured at 450 nm and the concentration of PGE2 was calculated from the standard curve.

[2] = Serum pharmacokinetics after single intragastric dose; format: in vivo, mice
Method: (§1) The mice were randomly divided into two groups of 18 mice apiece. […] Blood and tissue samples were harvested before initiation of treatment (0 hr) and at 1, 2, 4, 6, 8, 12, 16, and 24 hrs following the intragastric administration. At each time point, two mice were euthanized and ˜200 μL blood was collected by cardiac puncture, and tissues (liver, lung, kidney, heart, pancreas, and colon) were harvested, washed free of blood with PBS, blotted dry, weighed, and stored at −80° C. until analysis. The collected blood samples were allowed to clot, centrifuged, and then the serum was separated and stored at −80° C. until analysis.
(§2) The tissue samples were homogenized in 5 volumes of ice-cold normal saline. Aliquots of serum or tissue homogenate were spiked with ethyl acetate (containing 50 ng/ml zilueton as an internal standard) as follows: 100 μL serum/500 μL ethyl acetate and 500 μL tissue homogenate/1 ml ethyl acetate. The mixtures were vortex-mixed and centrifuged at 14,000 rpm for 5 minutes. The top layer was separated and dried under a stream of nitrogen in a water bath at about 50° C. The residue was reconstituted in 100 μL of methanol/water containing 0.45% formic acid (70:30 v/v) and then centrifuged again.
(§3) The supernatant (100 μL) was injected into the HPLC equipment, and separated on a Waters Xterra MS column (2.1×50 mm, […] i.d.) With a mobile phase consisting of methanol/water containing 0.45% formic acid (70:30 v/v) at a flow rate of 0.2 ml/min. The column effluent was monitored using a Waters Quattro Micro™ triple quadrapole mass-spectrometric detector equipped with an electrospray ionization source. (Waters Corporation, Milford, Mass.). […] The internal standard zilueton was monitored in the positive mode at the transition of m/z, 237.1→160.8. […] The within-day and between-day precision and accuracies of the assay was <15%.
Serum pharmacokinetic parameters were estimated using non-compartmental analysis with WinNonlin software version 4.2 (Pharsight Corporation, Cary, N.C.). The maximum serum concentration (Cmax) and the time of occurrence for maximum concentration (Tmax) were obtained by visual inspection of the serum concentration-time curve after drug administration. The total area under the serum concentration-time curve from time zero to the last measurable time point ([…]) was calculated using the linear and logarithmic trapezoidal method for ascending and descending serum concentrations, respectively.

[3] = Tissue distribution after single intragastric dose; format: in vivo, mice; conditions: for concentration in the colon: 250 mg/kg oral; for preferential tissue distribution: 250 mg/kg single dose, liver, lung, kidney, heart, pancreas, colon
Method: as §1, §2, §3

[4] = tested on: COX-2, E-cadherin, PTEN, pAkt, tropomyosin expression; assay: Western blot of COX-2, E-cadherin, PTEN, pAkt, tropomyosin; format: cell-based, human; conditions: BxPC-3 cell line only, 72 h
[5] = tested on: AsPC-1, AsPC1-GTR, MIAPaCa-2, and MIAPaCa-2-GTR cell lines; assay: BD BioCoat tumor invasion assay; format: cell-based, human; conditions: 4 μmol/L
Method: The invasive activity of the drug resistant cell lines was tested by using a BD BioCoat Tumor Invasion Assay System (BD Biosciences, Bedford, Mass.) according to the manufacturer's protocol. […] The fluorescence was read using a TECAN Microplate Reader at 530/590 nm and photographed.

[6] = tested on: BxPC-3 pancreatic cancer cells; assay: MTT assay, BxPC-3 cell growth, 72 h; format: cell-based, human; conditions: various concentrations
Method: The concentrations were 10 μM, 20 μM, and 30 μM. After aspiration of growth medium, (3-(4,5-Dimethylthiazol-2-yl)-2,5-diphenyltetrazolium bromide (MTT; 1 mg/ml) was added to the cell cultures, followed by incubation for 3 hours at 37° C. After the cells were crystallized, the MTT was removed and dimethylsulfoxide (DMSO) was added to dissolve the metabolized MTT product. The absorbance was then measured on a Wallac Victor^3 1420 Multi-label counter at 540 nm.
The results are shown on FIG. 5 which is a series of four bar graphs, labeled FIG. 5A through FIG. 5D.

[7] = tested on: VEGF; assay: AlphaLISA VEGF secretion; format: cell-based, human; conditions: 72 h; MIAPaCa-E and MIAPaCa-M
Excerpt: The effect of CDF on another downstream transcriptional target of NF-κβ, vascular endothelial growth factor (VEGF) secretion, was studied in the three human pancreatic cell lines.

[8] = tested on: AsPC-1-GTR and MIAPaCa-2-GTR cells; assay: Clonogenic assay, gemcitabine/tarceva-resistant lines; format: cell-based, human; conditions: 4 μmol/L CUR or CDF, 20 nmol/L GEM
[9] = tested on: MIAPaCa-2 tumors; assay: MIAPaCa-2 subcutaneous xenograft tumor model; format: in vivo, mice; conditions: CDF or CUR 5 mg/mouse/day intragastric 12 days; GEM 1 mg/mouse i.v. x3
Method: Female CB17 SCID mice 4 wks old were purchased from Taconic Farms (Germantown, N.Y.). Small fragments of the MIAPaCa-2 xenograft were implanted subcutaneously and bilaterally into mice. […] Tumor measurements and changes in weight were performed and tissue was stored at −70° C. for RNA and protein extraction.

[10] = tested on: NF-κB DNA binding activity; assay: EMSA for NF-κB DNA binding activity in tumor tissue; format: in vivo, mice; conditions: MIA PaCa-2 tumors
Method: Nuclear extracts were prepared from tumor tissue induced by the MIA PaCa-2 cells using an homogenizer with 400 μl of ice cold lysis buffer extracted as described earlier. EMSA was performed using the Odyssey Infrared Imaging System with NF-κβ 1RDye labeled oligonucleotide from LI-COR, Inc. (Lincoln, Nebr.). An NF-Kβ competition control study was conducted using unlabeled NF-Kβ consensus oligonucleotide. The samples were loaded and run at 30 mA for 1 hour. The gel was scanned using Odyssey Infrared Imaging System (LI-COR, Inc.).

[11] = tested on: 5-FU+Ox-resistant cancer cells; conditions: alone or with 5-FU+Ox or FOLFOX; cited from earlier work
[12] = serum, 250 mg/kg single intragastric
[13] = serum, as printed in text 'at 1 h'
[14] = female, ICR-SCID, mouse, po, serum, 250 mg/kg single intragastric

Compound: COc1cc(/C=C/C(=O)CC(=O)/C=C/c2ccc(O)c(OC)c2)ccc1O [CUR, (1E,6E)-1,7-bis(4-hydroxy-3-methoxyphenyl)hepta-1,6-diene-3,5-dione, reference compound]
- PGE2 level in conditioned medium ([1]; MIAPaCa-2 cells, 4 μM): significant decrease in PGE2 levels
- AUClast [2, 12]: 440 ng·h/mL
- Clast [2, 12]: 30 ng/mL
- Tlast ([2]; serum, 250 mg/kg single intragastric, 250 mg/kg): 8 h
- Tlast ([2]; serum, 250 mg/kg single intragastric, listed as Curcumin, 250 mg/kg): 8.0 h
- AUClast [2, 13]: 0.44 µg/mL
- concentration in the colon [3]: detectable at high concentrations in the colon
- preferential tissue distribution [3]: present mainly in heart and lung tissue
- E-cadherin expression [4]: significantly enhanced
- inhibition of invasion [5]: minimal inhibition on invasion

- AUC(0-t) [2, 14]: 1220 ng·h/mL
- Cmax [2, 14]: 210 ng/mL
- Tmax [2, 14]: 8 h
- increase in systemic drug level over Curcumin ([2]; serum AUClast, oral 250 mg/kg): 2.7 fold
- Clast [2, 12]: 40 ng/mL
- Tlast [2, 12]: 16.0 h
- AUClast [2, 13]: 1220 ng·h/mL
Compound: COc1cc(/C=C/C(=O)C(=Cc2ccc(F)c(F)c2)C(=O)/C=C/c2ccc(O)c(OC)c2)ccc1O [CDF, (1E,6E)-1,7-bis(4-hydroxy-3-methoxyphenyl)hepta-1,6-diene{4(3,4 difluorobenzaldehyde)}-3,5-dione]
- cell growth inhibition [6]: superior to CUR in inducing cell growth inhibition
- PGE2 level in conditioned medium ([1]; BxPC-3 cells, 1 μM): significant decrease in PGE2 level
- PGE2 level in conditioned medium ([1]; MIAPaCa-2 cells, 4 μM): significant decrease in PGE2 levels
- concentration in the colon [3]: detectable at high concentrations in the colon
- preferential tissue distribution [3]: accumulated preferentially in the pancreas
- E-cadherin expression [4]: significantly enhanced
- secreted levels of VEGF [7]: significant inhibition of secreted levels of VEGF
- reduction of clonogenicity [8]: 80%
- inhibition of invasion [5]: significant inhibition of invasion
- tumor growth [9]: significantly inhibited tumor growth
- NF-κβ activation in tumor tissue [10]: down-regulated NF-κβ activation
- reducing and/or reversing chemoresistant colon cancer cells [11]: superior to naturally-occurring CUR

Source: patent US20140303109A1 (priority 2010, published 2014)
